Earlier results as cited in US20180369129A1, “MICROBIOME-COMPATIBLE COSMETICS” (AOBIOME LLC, priority 2015, published 2018).

Assays:
[1] = system: NOS; details: reduction in basal NO levels
[2] = system: NOS; details: rat pancreatic islets; through the induction of iNOS

Q: With `COC(=O)[C@@H](N)CCCNC(=N)N[N+](=O)[O-]` [L-NAME] as the molecule, how does the “effect of chronic inhibition of NOS on heart and kidneys” value [1] read?
A: generalized fibrosis of the heart and kidneys

Q: And the “total NO production” value [2]?
A: increases total NO production
